As usually defined, the IC50 is the midpoint of a concentration-inhibition curve. Lower therefore signals inhibition by little substance.

Common to all, as to test: ACVR1 kinase assay, casein substrate, 33P-ATP, filter binding
What all share (type): biochemical
Details in all cases: 10 μM ATP

One experiment has as its target T1, ACVR1 G328V (Homo sapiens, UniProt Q04771, G328V).
T1 sequence (Q04771 21-509 G328V): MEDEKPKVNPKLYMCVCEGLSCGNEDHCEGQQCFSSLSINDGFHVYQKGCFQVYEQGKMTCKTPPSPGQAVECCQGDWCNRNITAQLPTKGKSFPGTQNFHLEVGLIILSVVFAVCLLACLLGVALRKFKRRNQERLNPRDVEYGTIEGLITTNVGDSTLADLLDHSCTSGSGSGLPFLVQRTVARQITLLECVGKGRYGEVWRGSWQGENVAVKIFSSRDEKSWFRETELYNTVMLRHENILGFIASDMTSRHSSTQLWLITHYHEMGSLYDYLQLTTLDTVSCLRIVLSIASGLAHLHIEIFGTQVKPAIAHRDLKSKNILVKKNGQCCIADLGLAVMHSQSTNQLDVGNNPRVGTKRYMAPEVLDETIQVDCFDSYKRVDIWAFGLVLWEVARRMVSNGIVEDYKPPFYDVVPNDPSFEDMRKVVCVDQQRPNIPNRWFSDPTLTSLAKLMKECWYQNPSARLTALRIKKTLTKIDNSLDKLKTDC
The protocol:
(§1) In brief, casein-based substrates were prepared. The respective ACVR1 kinase was added to the substrate mixture and hot/cold 33P-ATP (10 μM) was added to initiate the reaction. The activity was then measured with a filter binding method.
(§2) The IC50 values against the kinases are listed below in Table 3.

The next experiment concerns the target T2, ACVR1 R206H (Homo sapiens, UniProt Q04771, R206H).
T2 sequence (Q04771 21-509 R206H): T1 sequence (Q04771 21-509 G328V) with R186H, V308G
On the procedure:
as §1, §2

For another experiment, the target named is T3, ACVR1 R258G (Homo sapiens, UniProt Q04771, R258G).
T3 sequence (Q04771 21-509 R258G): T1 sequence (Q04771 21-509 G328V) with R238G, V308G
On the procedure:
as §1, §2

The target in another experiment is T4, ACVR1 Wild Type (Homo sapiens, UniProt Q04771).
T4 sequence (Q04771 21-509): T1 sequence (Q04771 21-509 G328V) with V308G
On the procedure: as §1, §2

Changes are numbered by the printed parent chain.

As to `COc1cc(Nc2nccc(Nc3cccnc3-c3ccccn3)n2)ccc1N1CCN(C)CC1` [Compound 2, N^4-(2,2′-bipyridin-3-yl)-N^2-(3-methoxy-4-(4-methylpiperazin-1-yl)phenyl)pyrimidine-2,4-diamine], the 50% inhibitory concentration (IC50) at ACVR1 G328V was 13.8 nM; on ACVR1 R206H, 3.8 nM; on ACVR1 R258G it was 51.6 nM; on ACVR1 Wild Type, 4.5 nM.
